Results as given in the supplement of paper PMC7796163.
± gives the uncertainty stated by the source.

What was measured:
Test in all cases: CYP enzyme activity (probe substrate metabolite formation) fold change vs solvent control; higher = stronger induction of CYP activity
Settings in all cases: HepaRG
[1] = biological target: CYP2D6 (UniProt P10635)
Method: (§1)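 Differentiated HepaRG cells were treated with 1, 5 or 10 µM of each PAH (0.5% DMSO) for 12, 24 or 48 h, then incubated for 3 h at 37 °C with a cocktail of isoform-specific CYP substrates (phenacetin for CYP1A2, bupropion for CYP2B6, amodiaquine for CYP2C8, tolbutamide for CYP2C9, mephenytoin for CYP2C19, propafenone for CYP2D6, atorvastatin for CYP3A4). Metabolite formation was quantified by LC-MS as a measure of CYP activity and reported as fold change over solvent control (mean ± SD, n=3). Values below the LLOQ were set to half the LLOQ.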

[2] = biological target: CYP2C9 (UniProt P11712)
Method: as §1

[3] = biological target: CYP3A4 (UniProt P08684)
Method: as §1

[4] = biological target: T1, CYP1A2 (UniProt P05177)
T1 sequence (whole entry): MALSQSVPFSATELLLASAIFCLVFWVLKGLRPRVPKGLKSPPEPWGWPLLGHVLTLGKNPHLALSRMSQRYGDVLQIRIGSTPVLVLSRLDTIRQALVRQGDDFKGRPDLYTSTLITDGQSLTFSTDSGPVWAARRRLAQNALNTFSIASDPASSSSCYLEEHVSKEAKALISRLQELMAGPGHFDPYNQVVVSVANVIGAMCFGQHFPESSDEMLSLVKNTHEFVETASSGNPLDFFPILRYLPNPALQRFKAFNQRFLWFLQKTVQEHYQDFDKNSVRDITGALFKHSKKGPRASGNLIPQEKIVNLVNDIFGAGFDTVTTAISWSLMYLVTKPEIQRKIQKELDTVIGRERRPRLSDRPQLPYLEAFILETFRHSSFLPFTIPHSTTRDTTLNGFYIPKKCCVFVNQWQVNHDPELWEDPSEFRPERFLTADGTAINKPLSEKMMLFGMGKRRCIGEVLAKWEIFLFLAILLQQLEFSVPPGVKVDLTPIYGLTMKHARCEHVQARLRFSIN
Method: as §1

[5] = biological target: CYP2C19 (UniProt P33261)
Method: as §1

[6] = biological target: T2, CYP2B6 (UniProt P20813)
T2 sequence (whole entry): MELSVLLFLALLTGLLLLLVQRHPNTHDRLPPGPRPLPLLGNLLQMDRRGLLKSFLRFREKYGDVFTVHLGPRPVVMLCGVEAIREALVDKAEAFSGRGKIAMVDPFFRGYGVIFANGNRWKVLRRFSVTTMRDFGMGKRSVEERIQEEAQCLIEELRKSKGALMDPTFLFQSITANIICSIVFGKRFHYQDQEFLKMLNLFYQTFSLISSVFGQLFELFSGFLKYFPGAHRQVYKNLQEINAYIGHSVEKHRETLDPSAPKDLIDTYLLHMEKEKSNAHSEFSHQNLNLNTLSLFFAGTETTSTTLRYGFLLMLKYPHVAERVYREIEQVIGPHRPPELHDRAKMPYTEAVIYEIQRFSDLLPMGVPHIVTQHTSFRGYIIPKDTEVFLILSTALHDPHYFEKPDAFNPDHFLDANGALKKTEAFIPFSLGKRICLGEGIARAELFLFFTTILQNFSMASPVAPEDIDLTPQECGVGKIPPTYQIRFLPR
Method: as §1

[7] = biological target: T3, CYP2C8 (UniProt P10632)
T3 sequence (whole entry): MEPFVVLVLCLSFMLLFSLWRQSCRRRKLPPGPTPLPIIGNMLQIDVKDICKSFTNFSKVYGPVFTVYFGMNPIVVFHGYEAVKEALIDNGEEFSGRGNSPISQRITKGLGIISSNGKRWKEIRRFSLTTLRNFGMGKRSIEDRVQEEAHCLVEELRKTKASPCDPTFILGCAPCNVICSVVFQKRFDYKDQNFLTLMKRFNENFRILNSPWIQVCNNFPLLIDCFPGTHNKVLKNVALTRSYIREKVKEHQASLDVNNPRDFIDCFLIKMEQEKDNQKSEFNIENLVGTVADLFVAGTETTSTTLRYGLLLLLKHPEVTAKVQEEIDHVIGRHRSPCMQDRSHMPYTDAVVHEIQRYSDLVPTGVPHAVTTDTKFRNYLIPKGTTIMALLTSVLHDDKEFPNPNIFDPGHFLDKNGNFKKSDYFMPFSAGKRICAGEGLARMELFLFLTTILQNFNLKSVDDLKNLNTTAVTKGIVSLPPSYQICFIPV
Method: as §1

Sequence of CYP3A4 (P08684 whole entry): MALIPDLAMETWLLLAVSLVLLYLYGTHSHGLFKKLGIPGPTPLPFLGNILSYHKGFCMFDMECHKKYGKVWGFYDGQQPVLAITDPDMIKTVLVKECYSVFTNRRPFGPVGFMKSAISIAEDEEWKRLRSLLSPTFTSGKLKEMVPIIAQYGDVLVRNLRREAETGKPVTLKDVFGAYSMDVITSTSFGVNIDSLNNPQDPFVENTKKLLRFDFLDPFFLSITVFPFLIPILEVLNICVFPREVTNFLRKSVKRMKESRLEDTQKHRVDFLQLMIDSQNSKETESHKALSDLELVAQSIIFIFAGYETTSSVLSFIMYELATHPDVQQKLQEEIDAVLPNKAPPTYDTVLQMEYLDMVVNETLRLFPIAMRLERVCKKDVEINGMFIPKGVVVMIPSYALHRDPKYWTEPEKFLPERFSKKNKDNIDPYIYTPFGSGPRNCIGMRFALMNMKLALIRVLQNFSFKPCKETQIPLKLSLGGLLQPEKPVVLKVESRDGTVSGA
Sequence of CYP2C19 (P33261 whole entry): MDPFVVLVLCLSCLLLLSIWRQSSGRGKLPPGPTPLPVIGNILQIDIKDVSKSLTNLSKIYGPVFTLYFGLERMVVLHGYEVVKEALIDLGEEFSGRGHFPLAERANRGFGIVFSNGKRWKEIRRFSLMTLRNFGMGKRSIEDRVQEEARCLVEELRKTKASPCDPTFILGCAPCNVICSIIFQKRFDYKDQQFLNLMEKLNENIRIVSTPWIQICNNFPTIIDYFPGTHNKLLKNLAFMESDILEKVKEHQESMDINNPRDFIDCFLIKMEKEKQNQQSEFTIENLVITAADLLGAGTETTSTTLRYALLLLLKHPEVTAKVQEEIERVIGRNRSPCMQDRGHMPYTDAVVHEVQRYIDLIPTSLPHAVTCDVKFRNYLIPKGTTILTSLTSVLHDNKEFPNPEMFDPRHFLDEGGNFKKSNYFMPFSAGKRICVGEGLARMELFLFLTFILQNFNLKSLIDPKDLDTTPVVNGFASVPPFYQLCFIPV
Sequence of CYP2D6 (P10635 whole entry, canonical isoform): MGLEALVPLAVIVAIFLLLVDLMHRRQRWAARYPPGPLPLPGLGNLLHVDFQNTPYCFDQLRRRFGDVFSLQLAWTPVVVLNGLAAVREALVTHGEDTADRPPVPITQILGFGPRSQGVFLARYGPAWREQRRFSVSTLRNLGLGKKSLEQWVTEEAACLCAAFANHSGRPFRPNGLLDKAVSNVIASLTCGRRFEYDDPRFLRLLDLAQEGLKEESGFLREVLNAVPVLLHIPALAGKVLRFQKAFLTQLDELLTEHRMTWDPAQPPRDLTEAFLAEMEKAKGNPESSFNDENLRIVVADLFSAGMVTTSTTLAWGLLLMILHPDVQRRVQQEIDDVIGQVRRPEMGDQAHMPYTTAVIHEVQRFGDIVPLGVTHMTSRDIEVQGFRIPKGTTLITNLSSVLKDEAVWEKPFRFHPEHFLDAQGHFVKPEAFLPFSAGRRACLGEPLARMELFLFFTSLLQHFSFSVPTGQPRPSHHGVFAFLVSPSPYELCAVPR
Sequence of CYP2C9 (P11712 whole entry): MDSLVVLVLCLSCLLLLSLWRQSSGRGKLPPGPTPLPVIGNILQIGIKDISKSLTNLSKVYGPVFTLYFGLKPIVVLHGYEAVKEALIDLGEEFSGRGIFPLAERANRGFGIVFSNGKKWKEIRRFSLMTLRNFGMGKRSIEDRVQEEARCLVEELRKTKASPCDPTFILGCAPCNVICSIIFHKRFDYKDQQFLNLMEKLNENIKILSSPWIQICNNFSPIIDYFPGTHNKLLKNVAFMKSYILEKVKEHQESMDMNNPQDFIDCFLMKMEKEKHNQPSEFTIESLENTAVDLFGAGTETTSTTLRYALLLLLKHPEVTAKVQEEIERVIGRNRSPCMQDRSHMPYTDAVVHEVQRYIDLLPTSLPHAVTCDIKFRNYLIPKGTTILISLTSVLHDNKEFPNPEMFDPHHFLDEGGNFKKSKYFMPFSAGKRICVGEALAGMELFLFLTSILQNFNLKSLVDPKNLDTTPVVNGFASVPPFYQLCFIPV

c1ccc2c(c1)-c1cccc3c1c-2cc1ccccc13 [benzo[b]fluoranthene]
CYP enzyme activity
Settings	[1]	[2]	[3]	[4]	[5]	[6]	[7]
1 µM, treatment time 12 h	1.24	0.95	0.857	2.68	0.955	1.04	0.95
1 µM, treatment time 24 h	0.924	0.907	0.751	1.78	0.885	1.23	0.906
1 µM, treatment time 48 h	0.763	0.891	0.732	1.75	0.984	0.832	0.908
5 µM, treatment time 12 h	1.38	0.978	0.925	3.81	1.05	1.29	0.951
5 µM, treatment time 24 h	1.52	0.951	0.823	9.11	0.951	2.08	0.817
5 µM, treatment time 48 h	0.934	0.82	0.732	5.4	0.976	1.33	0.717
10 µM, treatment time 12 h	1.19	0.939	0.875	0.947	0.995	1.21	0.929
10 µM, treatment time 24 h	1.87	0.842	0.723	13.2	0.876	1.71	0.758
10 µM, treatment time 48 h	0.823	0.602	0.495	7.06	0.667	1.4	0.444

c1ccc2c(c1)ccc1ccc3ccccc3c12 [benzo[c]phenanthrene]
CYP enzyme activity
Settings	[1]	[2]	[3]	[4]	[5]	[6]	[7]
1 µM, treatment time 12 h	0.94	1	0.867	1.2	0.916	1.02	0.945
1 µM, treatment time 24 h	0.773	0.961	0.843	1.09	0.911	1.04	0.9596
1 µM, treatment time 48 h	0.772	0.922	0.834	0.925	1.04	0.921	0.962
5 µM, treatment time 12 h	0.992	1.02	0.926	1.34	1.04	1.31	0.947
5 µM, treatment time 24 h	1.05	1.15	1.002	1.28	1.09	1.81	1.04
5 µM, treatment time 48 h	1.05	1.28	1.13	1.28	1.19	2.27	1.09
10 µM, treatment time 12 h	1.04	1.01	0.849	1.5	1.03	1.27	0.958
10 µM, treatment time 24 h	1.13	1.103	0.999	1.5	1.03	2.02	1.13
10 µM, treatment time 48 h	1.08	1.21	1.2	1.46	1.19	2.87	1.08

c1ccc2c3c(ccc2c1)-c1cccc2cccc-3c12 [benzo[j]fluoranthene]
CYP enzyme activity
Settings	[1]	[2]	[3]	[4]	[5]	[6]	[7]
1 µM, treatment time 12 h	1.28	0.852	0.809	3.57	0.86	1.02	0.921
1 µM, treatment time 24 h	0.87	0.88	0.702	2.09	0.826	1.27	0.903
1 µM, treatment time 48 h	0.759	0.835	0.666	1.1	0.948	0.856	0.974
5 µM, treatment time 12 h	1.94	0.826	0.883	6.59	0.97	1.21	0.894
5 µM, treatment time 24 h	1.61	0.844	0.728	12.1	0.9	2.01	0.779
5 µM, treatment time 48 h	0.711	0.734	0.694	4.57	0.882	1.32	0.798
10 µM, treatment time 12 h	1.13	0.731	0.916	1.21	0.84	1.04	0.785
10 µM, treatment time 24 h	2.94	0.771	0.715	23	0.867	2.03	0.751
10 µM, treatment time 48 h	0.838	0.75	0.636	9.96	0.914	1.83	0.688

c1ccc2cc3c(cc2c1)-c1cccc2cccc-3c12 [benzo[k]fluoranthene]
CYP enzyme activity
Settings	[1]	[2]	[3]	[4]	[5]	[6]	[7]
1 µM, treatment time 12 h	1.93	0.808	0.73	7.62	0.834	0.673	0.918
1 µM, treatment time 24 h	1.9	0.744	0.633	15.3	0.702	0.763	0.793
1 µM, treatment time 48 h	1.36	0.704	0.544	25.3	0.832	0.806	0.812
5 µM, treatment time 12 h	2.35	0.76	0.89	9.06	0.854	0.751	0.875
5 µM, treatment time 24 h	2.71	0.67	0.676	17.8	0.723	0.806	0.682
5 µM, treatment time 48 h	1.62	0.396	0.342	27.3	0.577	0.574	0.278
10 µM, treatment time 12 h	2.05	0.725	0.93	5.83	0.76	0.741	0.759
10 µM, treatment time 24 h	2.98	0.594	0.732	16.9	0.754	0.923	0.625
10 µM, treatment time 48 h	1.49	0.312	0.283	17.5	0.455	0.446	0.164
